Assay results taken from US9624161B2 (priority 2009, dated 2017).
Values joined by “and” are separate entries in the source; they are usually repeats but may differ in a detail not shown here. Equal values may be shown once.

Tested on: men with metastatic castration resistant prostate cancer (mCRPC)
Assay: Study 6: secondary hormone therapy with Compound IV 125 mg, 250 mg or 500 mg in mCRPC/nmCRPC maintained on ADT
Format: in vivo, human
Description: Compound IV, is studied (Study 6) for the proposed indication secondary hormone therapy for metastatic castration resistant prostate cancer (mCRPC), for high risk non-metastatic castration resistant prostate cancer (nmCRPC) or advanced prostate cancer at high risk of progressing to CRPC, or any combination thereof.
The effect of Compound IV as secondary hormonal therapy that reduces serum PSA and serum free testosterone levels in men with metastatic castration resistant prostate cancer maintained on androgen deprivation therapy is studied. The study assesses the effects of Compound IV on serum PSA response and serum PSA progression in men with mCRPC on ADT with LHRH agonists, LHRH antagonists, or orchidectomy. This study also assesses the VTE risk of lower doses of Compound IV. Secondary endpoints include serum free testosterone levels, adrenal gland androgen precursor production (DHEA and DHEAS levels), progression free survival, and skeletal related events (SRE).
75 subjects with castration resistant prostate cancer patients with radiographic evidence of metastatic disease (T any-N any-M1) are enrolled in the study. These subjects have a median life expectancy of less than 20 months, i.e. more serious disease than the other subjects with advanced prostate cancer enrolled in the previous studies. All subjects have been previously treated with androgen deprivation therapy (ADT), have responded to the ADT and currently have a serum PSA >2 ng/mL or >2 ng/mL and representing a 25% increase above the nadir achieved on the ADT. Subjects are maintained on ADT throughout the study.
Each subject receives daily doses of 125 mg Compound IV, 250 mg Compound IV, or 500 mg Compound IV administered orally, until their serum PSA increases at least 25% and 2 ng/mL from the nadir at two successive serum PSA assessments after initiation of treatment with Compound IV.
Enrollment into this study is staggered by 1 cycle (30 days) such that the first 25 subjects are enrolled into the 125 mg Compound IV dose arm. These subjects are evaluated for incidence of venous thromboembolic events (VTE). When the last subject in the 125 mg Compound IV dose arm has completed 1 cycle of therapy (30 days) in this dose arm and there is an acceptable incidence rate of VTE in this dose arm at that time (less than 3), enrollment is commenced in the 250 mg Compound IV dose arm. These subjects are evaluated for the incidence of VTE. When all 25 subjects in the 250 mg Compound IV dose arm have completed 1 cycle of therapy (30 days) in this dose arm and there is an acceptable incidence rate of VTE in this dose arm at that time (less than 3), enrollment into the 500 mg Compound IV dose arm (25 subjects) is commenced.
125 mg Compound IV, 250 mg Compound IV, or 500 mg Compound IV will be administered daily to all subjects in the study until they have developed serum PSA progression (serum PSA has increased at least 25% and 2 ng/mL above the nadir at two successive sample times after initiation of treatment with Compound IV).
Assessments of serum total testosterone, serum free testosterone, serum SHGB and serum PSA concentrations are made on Days 15, 30, and every 30 days until their serum PSA has increased at least 25% and 2 ng/mL from the nadir at two successive sample times after initiation of treatment with Compound IV. Bone turnover markers are assessed at baseline (Day 1), Day 90, and End of Study.
The incidence and frequency of hot flashes is assessed at baseline (Day 1), Day 30, Day 60, Day 90 and End of Study.
The proportion of subjects with a 50% decline from baseline in serum PSA (confirmed by a second serum PSA assessment 30 days later) by Day 90 (with follow up confirmation by Day 120) […]

[1] = 250 mg, 11 evaluable patients (FIG. 61)
[2] = Study 6, 125 mg, 20 evaluable patients
[3] = Study 6, 125 mg, 21 evaluable patients
[4] = Study 6, 125 mg, mCRPC on ADT, Day 90, N 20
[5] = Study 6, 125 mg, mCRPC on ADT, N 20
[6] = Study 6, 125 mg, patients with hot flashes at baseline
[7] = Study 6, 125 mg, patients with no hot flashes at baseline

`O=C(c1ccc(O)c(F)c1)N(c1ccc(O)cc1)c1ccc(F)cc1` [Compound IV, 3-fluoro-N-(4-fluorophenyl)-4-hydroxy-N-(4-hydroxyphenyl)benzamide] was tested, and the “Deep vein thrombosis events (DVTs)” value (125 mg) was “No deep vein thrombosis events (DVTs) have been reported”, the “Evaluable patients with improvements in hot flash frequency or severity” value (125 mg) was 33% and the “Evaluable patients with reductions in CTX” value (125 mg) was 60%. The “Evaluable patients with reductions in bone specific alkaline phosphatase” value (125 mg) was 52%, the “Men that do not respond and have continually increasing PSA levels” value (125 mg) was 6 and the “Patients reporting a PSA decrease in response to therapy” value (125 mg) was 24 patients. For the same compound, the “Patients with maximum free T reductions greater than 50% from baseline” value (125 mg) was 24 of 30, the “Patients with reductions in free T” value (125 mg) was 27 of 30 and the “SAEs or VTEs” value (125 mg) was “no SAEs or VTEs”. For the same compound, the “Subjects with decreased collagen C-telopeptide (CTX)” value (125 mg) was 69%, the “Subjects with ≧50% decrease in PSA level” value (125 mg) was 11% and the “Patients with free T >0.7 pg/ml (Day 1) that go to <0.7 pg/mL” value (125 mg cohort) was 22/25. The “Patients with total T >20 ng/dL (Day 1) that do NOT go to <20 ng/dL” value (125 mg cohort) was 0/3, the “Patients with total T >20 ng/dL (Day 1) that go to <20 ng/dL” value (125 mg cohort) was 3/3 and the “Patients with improvement in both frequency and severity of hot flashes” value (125 mg, 18 evaluable patients) was 22%. The “Patients with improvement of frequency or severity and stability of the other measurement” value (125 mg, 18 evaluable patients) was 11%, the “Patients with stability in frequency and severity of hot flashes” value (125 mg, 18 evaluable patients) was 50% and the “Patients with worsening of either frequency or severity of hot flashes” value (125 mg, 18 evaluable patients) was 17%. The “SHBG level relative to Day 0 in all treated men” value (125 mg, at least 90 days, initial 15 patients) was ≥ 150 % of Day 0, the “Men with suboptimal castration (free T>0.7 pg/ml) that became optimally castrated” value (125 mg, by day 90, initial 15 patients) was 91% and the “Treated men with improvement and stability of bone turnover markers” value (125 mg, initial group, 11 evaluable subjects) was “at least 73%”. The “Patients with >45% decrease in PSA” value (125 mg, prior to day 90, initial 15 patients) was 4/15 and 4, the “Subjects with any level of PSA decline” value (250 mg) was 85% and the “Subjects with decreased collagen C-telopeptide (CTX)” value (250 mg) was 81%. For the same compound, the “Subjects with ≧50% decrease in PSA level” value (250 mg) was 30%, the “Patients with free T >0.7 pg/ml (Day 1) that go to <0.7 pg/mL” value (250 mg cohort) was 9/10 and the “Patients with total T >20 ng/dL (Day 1) that do NOT go to <20 ng/dL” value (250 mg cohort) was 0/4. For the same compound, the “Patients with total T >20 ng/dL (Day 1) that go to <20 ng/dL” value (250 mg cohort) was 4/4, the “Reported drug related serious adverse events (SAE)” value (250 mg daily) was “one” and the “Subjects that reported adverse events (AE's)” value (250 mg daily) was “seven”. For the same compound, the “Median SHBG level” value (250 mg daily, initial 20 patients, 90 days) was 297 % of baseline, the “SAE possibly drug related” value (250 mg daily, patient required hospitalization) was “Phlebothrombosis-Grade 3” and the “Patients stable in both hot flash measurements” value [1] was 45%. The “Patients with improvement in both/either frequency and severity of hot flashes” value [1] was 36%, the “Bone turnover (CTX) decreased (improved), share of subjects” value (Study 6, 125 mg cohort) was 69% are decreased and the “SHBG, median (of baseline)” value (Study 6, 125 mg cohort) was “Median - 158%”. The “PSA response: subjects with ≧50% decrease in PSA” value (Study 6, 125 mg cohort, 4/38) was 4/38 ≧ 50% (11%), the “Hot flashes improved, in men experiencing them on Day 1” value (Study 6, 125 mg cohort, 7/24) was 7/24 improved (29%) and the “Hot flashes stable, in men experiencing them on Day 1” value (Study 6, 125 mg cohort, 12/24) was 12/24 stable (50%). For the same compound, the “CTx decreased, # of patients (%)” value [2] was 12/20 (60%), the “CTx increased, # of patients (%)” value [2] was 5/20 (25%) and the “CTx unchanged, # of patients (%)” value [2] was 3/20 (15%). For the same compound, the “BSAP decreased, # of patients (%)” value [3] was 11/21 (52%), the “BSAP increased, # of patients (%)” value [3] was 8/21 (38%) and the “BSAP unchanged, # of patients (%)” value [3] was 2/21 (10%). For the same compound, the “Adverse event frequency (%): Bone pain” value (Study 6, 125 mg, 34 subjects) was 3 (9%), the “Adverse event frequency (%): Gynecomastia (grade 2)” value (Study 6, 125 mg, 34 subjects) was 4 (12%) and the “Adverse event frequency (%): Gynecomastia/breast tenderness (grade 1)” value (Study 6, 125 mg, 34 subjects) was 4 (12%). For the same compound, the “Adverse event frequency (%): Loss of appetite” value (Study 6, 125 mg, 34 subjects) was 3 (9%), the “Adverse event frequency (%): Nausea” value (Study 6, 125 mg, 34 subjects) was 2 (6%) and the “Adverse event frequency: VTE” value (Study 6, 125 mg, 34 subjects) was 0. The “Free testosterone level, mean” value [4] was 0.57 pg/mL, the “Free testosterone level, median” value [4] was 0.45 pg/mL and the “Free testosterone, % change from baseline to Day 90, median” value [5] was −57.14%. The “Free testosterone, change from baseline to Day 90, median” value [5] was -0.50 pg/mL, the “Free testosterone, change from baseline to Day 90, mean” value (Study 6, 125 mg, mCRPC on ADT, N 20, P 0.0002) was -0.74 pg/mL and the “Free testosterone, % change from baseline to Day 90, mean” value (Study 6, 125 mg, mCRPC on ADT, N 20, P 0.0035) was −34.59%. The “Change in hot flashes (frequency, severity): (Better, Better), % of patients” value [6] was 18.75%, the “Change in hot flashes (frequency, severity): (Better, Stable), % of patients” value [6] was 18.75% and the “Change in hot flashes (frequency, severity): (Better, Worse), % of patients” value [6] was 6.25%. The “Change in hot flashes (frequency, severity): (Stable, Stable), % of patients” value [6] was 37.50%, the “Change in hot flashes (frequency, severity): (Stable, Worse), % of patients” value [6] was 6.25% and the “Change in hot flashes (frequency, severity): (Worse, Worse), % of patients” value [6] was 12.50%. For the same compound, the “Change in hot flashes (frequency, severity): (Stable, Stable), % of patients” value [7] was 77.78%, the “Change in hot flashes (frequency, severity): (Worse, Worse), % of patients” value [7] was 22.22% and the “SHBG, mean (of baseline)” value (Study 6, 250 mg cohort) was “Mean - 294%”. For the same compound, the “SHBG, median (of baseline)” value (Study 6, 250 mg cohort) was “Median - 297%”, the “Hot flashes improved, in men experiencing them on Day 1” value (Study 6, 250 mg cohort, 4/11) was 4/11 improved (36%) and the “Hot flashes stable, in men experiencing them on Day 1” value (Study 6, 250 mg cohort, 5/11) was 5/11 stable (45%). The “PSA response: subjects with ≧50% decrease in PSA” value (Study 6, 250 mg cohort, 6/20, Day 90) was 6/20 ≧ 50% (30%), the “Bone turnover (CTX) decreased (improved), share of subjects” value (Study 6, 250 mg cohort, 13/16) was 13/16 (81%) are and the “Reported adverse event: Bilateral Breast Tenderness, grade” value (Study 6, 250 mg daily) was “Grade 1”. For the same compound, the “Reported adverse event: Diarrhea, grade” value (Study 6, 250 mg daily) was “Grade 1”, the “Reported adverse event: Gynecomastia, grade” value (Study 6, 250 mg daily) was “Grade 2” and the “Reported adverse event: Nipple Pain, grade” value (Study 6, 250 mg daily) was “Grade 1”. The “Reported adverse event: Nipple Tenderness, grade” value (Study 6, 250 mg daily) was “Grade 1” and the “Reported adverse event: Sensitivity of Mammila, grade” value (Study 6, 250 mg daily) was “Grade 1”.
